ChEMBL document CHEMBL1201862, “PubChem BioAssay data set” (2004)
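Five compound concentrations were applied to cells in 96-well plates for 48 hours; endpoints were derived by simple linear interpolation of the resulting dose-response curve. GI50 marks 50% less growth.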 Calls of active or inactive are those of the source. No stated cut-off is given here; in the data, active = GI50 up to about 1.1 µM and inactive = higher.

How the values were obtained:
Experiment in all cases: growth of human tumour cells (NCI), 48 h
CCRF-CEM = test system: CCRF-CEM
SNB-78 = test system: SNB-78
SW-620 = test system: SW-620
OVCAR-3 = test system: OVCAR-3
HOP-92 = test system: HOP-92
OVCAR-8 = test system: OVCAR-8
SK-OV-3 = test system: SK-OV-3
DMS-273 = test system: DMS-273
K562 = test system: K562
SK-MEL-2 = test system: SK-MEL-2
HT-29 = test system: HT-29
SNB-19 = test system: SNB-19
TK-10 = test system: TK-10
SK-MEL-5 = test system: SK-MEL-5
ACHN = test system: ACHN
M14 = test system: M14
SR = test system: SR

Measured: GI50

CCN1c2ccccc2C(C(SC)S(=O)(=O)c2ccc(C)cc2)c2c1[nH]c(=O)n(C)c2=O (configuration not stated)
inactive: CCRF-CEM > 100 µM | SNB-78 > 100 µM | SW-620 > 100 µM | OVCAR-3 > 100 µM | HOP-92 > 100 µM | OVCAR-8 > 100 µM | SK-OV-3 > 100 µM | DMS-273 > 100 µM | K562 > 100 µM | SK-MEL-2 71.1 µM | HT-29 > 100 µM | SNB-19 > 100 µM | TK-10 > 100 µM | SK-MEL-5 > 100 µM

O=C(CC1S/C(=N\c2ccccc2Cl)NC1=O)Nc1ccc(Cl)cc1 (configuration not stated)
inactive: CCRF-CEM > 100 µM | SNB-78 > 100 µM | ACHN > 100 µM | SW-620 10.6 µM | M14 > 100 µM | SK-OV-3 > 100 µM | DMS-273 > 100 µM | K562 79.1 µM | SK-MEL-2 > 100 µM | SR 31.3 µM | HT-29 64 µM | SNB-19 > 100 µM | TK-10 > 100 µM | SK-MEL-5 > 100 µM

Cc1cc(C)nc(NS(=O)(=O)c2ccc(NC(=O)c3ccc(Cl)c4c(Nc5ccc(S(=O)(=O)Nc6cc(C)on6)cc5)c5ccccc5nc34)cc2)n1
inactive: SNB-78 13.9 µM | ACHN 18.9 µM | SW-620 17.3 µM | M14 18.8 µM | OVCAR-3 16.6 µM | HOP-92 16.3 µM | OVCAR-8 15.5 µM | SK-OV-3 19.4 µM | DMS-273 17.4 µM | K562 20.9 µM | HT-29 19.5 µM | SNB-19 17 µM | TK-10 18.3 µM | SK-MEL-5 16.4 µM

CCc1cccc(C(C)C)c1NC(=O)C(=O)CC(=O)c1c(C)[n+]([O-])c2ccccc2[n+]1[O-]
inactive: CCRF-CEM > 100 µM | SNB-78 > 100 µM | ACHN 77.6 µM | SW-620 > 100 µM | M14 > 100 µM | HOP-92 > 100 µM | OVCAR-8 > 100 µM | SK-OV-3 > 100 µM | K562 > 100 µM | SK-MEL-2 > 100 µM | SNB-19 > 100 µM | TK-10 > 100 µM | SK-MEL-5 > 100 µM

O=C1C[C@@H]2[C@@H](C=CC23CC3)N1O
inactive: CCRF-CEM > 100 µM | SNB-78 > 100 µM | SW-620 > 100 µM | M14 > 100 µM | OVCAR-8 > 100 µM | SK-OV-3 > 100 µM | DMS-273 > 100 µM | K562 > 100 µM | SK-MEL-2 > 100 µM | HT-29 > 100 µM | SNB-19 > 100 µM | TK-10 > 100 µM | SK-MEL-5 > 100 µM

CO[C@@]1(c2ccccc2)O[C@H]2OCCC2[C@H]1c1ccc(Cl)cc1 (some centres not stated)
inactive: SNB-78 45.1 µM | ACHN 34 µM | SW-620 32.7 µM | M14 37.6 µM | OVCAR-3 16.5 µM | OVCAR-8 33.7 µM | DMS-273 39.5 µM | K562 29.9 µM | SK-MEL-2 31.8 µM | SR 29 µM | HT-29 20.3 µM | SNB-19 40.1 µM | TK-10 40.8 µM | SK-MEL-5 17 µM

CC(=O)O[C@@H]1C2C(=O)OC(=O)C2C2CCC[C@]23O[C@H]13 (some centres not stated)
inactive: CCRF-CEM > 100 µM | SNB-78 > 100 µM | ACHN > 100 µM | SW-620 > 100 µM | M14 > 100 µM | OVCAR-3 > 100 µM | OVCAR-8 > 100 µM | SK-OV-3 > 100 µM | DMS-273 > 100 µM | K562 > 100 µM | SK-MEL-2 > 100 µM | SR > 100 µM | SNB-19 > 100 µM | TK-10 > 100 µM | SK-MEL-5 > 100 µM
